The results in this text go back to ChEMBL document CHEMBL1201862, “PubChem BioAssay data set” (2004).

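Cells were grown in 96-well plates and exposed to each compound for 48 hours at five concentrations; endpoints were interpolated linearly between bracketing concentrations, or set to the highest concentration if not reached. The concentration for 50% growth inhibition is given as GI50.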 Calls of active or inactive are those of the source. Cut-off read from the data, not from the text of the source: active = GI50 up to about 1.1 µM and inactive = higher.

Some test systems named below: A498; DU-145; EKVX; HCT-15; HOP-92; K562; KM12; M14; MDA-MB-231; MDA-N; MOLT-4; NCI-H460; OVCAR-3; OVCAR-5; SF-295; SK-MEL-2; SK-MEL-5; SN12C; SW-620; UO-31.
Common to all, as to assay: NCI tumour cell line growth inhibition, 48 h

For `O=c1ccc2[n+]([O-])c3ccc(O)cc3oc-2c1` [RESAZURIN], the GI50 with A498 was 39.2 µM (inactive); in the assay with DU-145, 15.9 µM (inactive); in the assay on EKVX, 28.8 µM (inactive); with HCT-15, 5.15 µM; with HOP-92 it was > 75.2 µM (inactive); in the assay on K562, 10.5 µM (inactive). The GI50 in the assay with KM12 is 5.19 µM (inactive); in the assay with M14 it was 7.83 µM (inactive); in the assay on MDA-MB-231, 29.6 µM (inactive); in the assay with MDA-N, 1.84 µM (inactive); with MOLT-4 it was 13.7 µM (inactive); with NCI-H460, 12.3 µM (inactive). Besides, the GI50 with OVCAR-3 was 13.2 µM (inactive); with OVCAR-5, 23.6 µM (inactive); in the assay with SF-295, 7.41 µM (inactive); with SK-MEL-2 it was 10 µM (inactive); in the assay with SK-MEL-5 it was 2.72 µM (inactive); in the assay on SN12C, 18.2 µM (inactive). Also, the figures for the GI50 in the assay on SW-620 and with UO-31 were 11.5 µM (inactive) and 1.93 µM (inactive), respectively.
